Data on one molecule can be found in publication PMC13239830, “Antimicrobial Peptides Induce Cell Death in Marginal Zone Lymphoma Models Resistant to Targeted Therapies” (EJHaem, 2026).

The subject of data set [1] is Karpas1718 cells. The class given is cell-based, human. The note with it: 72 h. Here is the method:
(§1) The established human cell lines VL51 1 and Karpas1718 2, derived from bona fide marginal zone lymphomas (MZL), and their derivatives with secondary resistance obtained by long exposure to the BTK inhibitor ibrutinib, the PI3Kδ inhibitor idelalisib or the PI3Kα/δ inhibitor copanlisib (three from VL51 3-5, and one from Karpas1718 6). Cell lines were cultured in RPMI supplemented with fetal bovine serum (FBS) (10%) and penicillin-streptomycin-neomycin (≈5,000 units penicillin, 5 mg streptomycin, and 10 mg neomycin/mL; Sigma-Aldrich, Darmstadt, Germany). Cell line identities were confirmed by periodic short tandem repeat (STR) DNA fingerprinting using the Promega GenePrint 10 System kit (B9510).
(§2) Cells were regularly tested for mycoplasma negativity using the MycoAlert Mycoplasma Detection Kit (Lonza, Visp, Switzerland).
(§3) […] Purity (>95%) was confirmed by reverse-phase high-performance liquid chromatography (RP-HPLC) while molecular masses were verified by mass spectrometry. Peptides were dissolved in nuclease-free water, and 2 mM stock solutions were prepared 7.
(§4) Antarctic peptides were synthesized by Caslo Aps (Caslo Aps Kongens, Lyngby, Denmark) with 98% purity. Purity was confirmed by reverse-phase high-performance liquid chromatography (RP-HPLC), and molecular masses were verified by mass spectrometry. As previously reported, the peptide stock concentration in nuclease-free water (1 mM) was determined spectrophotometrically.
(§5) In vitro cytotoxic activity
(§6) Cells were manually seeded into 96-well plates (VL51, 10’000 cells per well; SSK41, 20’000 cells per well; Karpas1718, 30’000 cells per well). Treatments were applied manually, and cell viability was assessed after 72 hours using 3-(4,5-dimethylthiazol-2-yl)-2,5-diphenyltetrazolium bromide (MTT).
(§7) After a 4-hour incubation, the reaction was terminated by adding sodium dodecyl sulfate (SDS) lysis buffer. Plates were analyzed with Cytation3, and IC50s were calculated using the 4-parameter logistic model (R environment or GraphPad Prism, Version 10.6.1). Antarctic peptides were tested at 40μM, with 1:2 dilutions down to 625 nM. Temporins were tested at 100μM, with 1:5 dilutions down to 32 nM. […]

The test system of data set [2] is Karpas1718-Idel (idelalisib-resistant Karpas1718) cells. The data set is classed as cell-based, human. The note with it: 72 h. Here is the method: as §1, §2, §3, §4, §5, §6, §7
Data set [3] deals with VL51 cells. The class given is cell-based, human. The note with it: 72 h. As to the method: as §1, §2, §3, §4, §5, §6, §7
Data set [4] relates to VL51-Copa (copanlisib-resistant VL51) cells. The data set is classed as cell-based, human. To be noted: 72 h. As to the method: as §1, §2, §3, §4, §5, §6, §7
For data set [5], the system named is VL51-Ibru (ibrutinib-resistant VL51) cells. The data set is classed as cell-based, human. To be noted: 72 h. Here is the method:
as §1, §2, §3, §4, §5, §6, §7

Data set [6] has as its system VL51-Idel (idelalisib-resistant VL51) cells. The class given is cell-based, human. The note with it: 72 h. Here is the method:
as §1, §2, §3, §4, §5, §6, §7

Data set [7] has as its system MZL cell lines (VL51, Karpas1718) and resistant derivatives. Put plainly: In vitro cytotoxic activity (MTT, 72 h), summary over the MZL cell line panel. The class given is cell-based. The note with it: derivatives resistant to BTK, PI3Kδ or PI3Kα/δ inhibitors. Here is the method:
For in vitro testing, we used two human MZL cell lines, VL51 and Karpas1718, along with derivative clones rendered resistant by prolonged exposure to the BTK inhibitor ibrutinib, the PI3Kδ inhibitor idelalisib, or the PI3Kα/δ inhibitor copanlisib (Table S1; methods described in the Supporting Information). […] The calculated IC50 values ranged from 5 to 10 µM (Table S2). […] These findings were validated by treating lymphoma cells and peripheral blood mononuclear cells (PBMCs) in parallel. […] While acquired resistance to BTK or PI3K inhibitors often involves secondary mutations in the drug‐binding site, activation of alternative kinases, or evasion of apoptosis through upregulation of anti‐apoptotic proteins, these adaptations are unlikely to protect tumor cells from AMP‐mediated membrane disruption. […]
as §1, §2, §3, §4, §5, §6, §7

Data set [8] concerns Karpas1718-Idel cells. Put plainly: Cell death and membrane integrity by Annexin V/PI staining. The class given is cell-based, human. To be noted: 10 µM, 1 and 2 h, flow cytometry. Here is the method:
as §1, §2, §3
Antarctic peptides were synthesized by Caslo Aps (Caslo Aps Kongens, Lyngby, Denmark) with 98% purity. Purity was confirmed by reverse-phase high-performance liquid chromatography (RP-HPLC), and molecular masses were verified by mass spectrometry. As previously reported, the peptide stock concentration in nuclease-free water (1 mM) was determined spectrophotometrically. […]
Subsequently, cells were stained with Annexin V and propidium iodide (PI) (Annexin V FITC Apoptosis Detection Kit, BMS500FI-300, Life Technologies) following the manufacturer ’s instructions and analyzed through flow cytometry and immunofluorescence (Leica Thunder microscope).
PBMCs. Flow cytometric (A) and immunofluorescence (B) analyses of Annexin V/PI staining in Karpas1718-Idel cells and PBMCs after 1- and 2-hour treatments with W-trematocine or Temporin L at 10 µM. (B) Representative images (100x magnification) show brightfield, Annexin V (green), and PI […]

In data set [9] the test system is PBMCs. The description is as above. The data set is classed as cell-based. The note with it: 10 µM; 1 and 2 h; PBMCs treated in parallel; flow cytometry. As to the method: as §1
Cells were regularly tested for mycoplasma negativity using the MycoAlert Mycoplasma Detection Kit (Lonza, Visp, Switzerland). […]
Antarctic peptides were synthesized by Caslo Aps (Caslo Aps Kongens, Lyngby, Denmark) with 98% purity. […] As previously reported, the peptide stock concentration in nuclease-free water (1 mM) was determined spectrophotometrically. […]
Subsequently, cells were stained with Annexin V and propidium iodide (PI) (Annexin V FITC Apoptosis Detection Kit, BMS500FI-300, Life Technologies) following the manufacturer ’s instructions and analyzed through flow cytometry and immunofluorescence (Leica Thunder microscope). […]
(In general: In flow cytometry, cells or beads pass a laser one at a time.)

For data set [10], the system named is primary human fibroblasts. To be noted: up to 25 µM, 24 h, ref [9]; cited from earlier work.
Data set [11] has as its system rabbit erythrocytes. To be noted: ref [9]; cited from earlier work.
The test system of data set [12] is nonmalignant cells. The note with it: prior studies; ref prior studies; cited from earlier work. The source says:
ABSTRACT Introduction Marginal zone lymphoma (MZL) is an indolent yet incurable B‐cell malignancy in which targeted agents such as BTK and PI3K inhibitors frequently fail due to resistance or toxicity. […] Methods Peptides were synthesized and tested for their anti‐proliferative activity in MZL cell lines. Results We evaluated the antitumor activity of seven natural AMPs, including Antarctic fish–derived trem ...

Structures are written as SMILES. Entries after “also recorded” stand apart in the source; their conditions may differ. Peptide text beside a SMILES is read from it.

The term IC50 denotes the concentration needed to halve the response being measured. Higher therefore signals weaker potency. For the molecule `CC[C@H](C)[C@H](NC(=O)CNC(=O)[C@H](CCCNC(=N)N)NC(=O)[C@H](CC(C)C)NC(=O)[C@H](CC(C)C)NC(=O)[C@H](Cc1c[nH]cn1)NC(=O)CNC(=O)[C@H](Cc1ccccc1)NC(=O)[C@@H](N)Cc1c[nH]c2ccccc12)C(=O)N[C@H](C(=O)N[C@@H](CO)C(=O)N[C@H](C(=O)NCC(=O)N[C@@H](CCCCN)C(=O)N[C@@H](Cc1c[nH]cn1)C(=O)N[C@H](C(=O)N[C@@H](Cc1c[nH]cn1)C(=O)NCC(=O)N[C@@H](CC(C)C)C(=O)N[C@H](C(=O)N[C@H](C(=O)NCC(=O)O)[C@@H](C)O)[C@@H](C)CC)[C@@H](C)CC)C(C)C)C(C)C` [W-Trematocine] (H-WFGHLLRGIVSVGKHIHGLITG-OH; N-terminus and C-terminus assumed), the IC50 in [1] was determined as 5 µM; in data set [2] it was 6.5 µM; in [3] it was 5.5 µM; in [4], 7.1 µM; in data set [5] it was 6.5 µM; in [6], 7.6 µM. Moreover, the “activity in resistant models” value in data set [7] is recorded as “maintaining full activity in all resistant models”. Moreover, the “anti-lymphoma activity (Annexin V/PI staining)” value in data set [8] is “active in lymphoma cells; also recorded: potent anti‐lymphoma activity”. Also, the “sensitivity of PBMCs (Annexin V/PI staining)” value in [9] is recorded as “markedly less sensitive”. The cytotoxicity entry in data set [10] was “negligible cytotoxicity”. In addition, the hemolysis result in data set [11] is given as “minimal hemolysis”. In addition, in [12], the “toxicity toward nonmalignant cells” value is “minimal toxicity”.
